We go through seven compounds from PubChem BioAssay (NCI).

SMILES strings stand for the structures.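 Where inhibition never reached the appropriate level, the endpoint shown equals the highest concentration tested. Otherwise, values were interpolated linearly from a five-concentration, 48-hour dose response in 96-well plates. GI50 = concentration required for 50% inhibition of growth. TGI: concentration producing complete growth inhibition.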

The first test has as its system SNB-75 CNS. Kind of test: NCI-60 cell line screen, 48 h.
For `N=Nc1c(OC(=O)Nc2cccc(Cl)c2)[nH]c2ccccc12`, the TGI was 17.9 µM.

The next test has as its system NCI/ADR-RES ovarian. Kind of test: NCI-60 cell line screen, 48 h.
Regarding `CCCCCCCC(=O)SCC/C=C/[C@@H]1CC(=O)NCc2cc(ccn2)C2=N[C@@](C)(CS2)C(=O)N[C@@H](C(C)C)C(=O)O1`, the GI50 was 0.241 µM and the TGI is above 33.3 µM.
The compound `CSc1nc(NC2OCC(OC(C)=O)C(OC(C)=O)C2OC(C)=O)c(N=CC=Nc2c(NC3OCC(OC(C)=O)C(OC(C)=O)C3OC(C)=O)nc(SC)[nH]c2=O)c(=O)[nH]1` (stereo not given) registered a TGI above 100 µM.
The same measure, in the same setting: then `COc1cc(OC)cc(-c2cc(=O)c3c(OC)c(OC)c(OC)c(OC)c3o2)c1`, with above 100 µM.
For the compound `O=C1OC(O)[C@@H]2[C@H]1[C@H]1CC[C@@H]2O1` (stereo not given in full), the GI50 is above 100 µM and the TGI is above 100 µM.
The compound `COC(=O)C1=C(C)NC(C)=C(C(=O)OCCCN2CCC(c3ccccc3)(c3ccccc3)CC2)C1c1cccc([N+](=O)[O-])c1` (stereo not given) had a TGI of 3.42 µM.
Turning to `COc1ccc([C@H]2[C@@H](F)C(=O)N2c2cc(OC)c(OC)c(OC)c2)cc1F`, the GI50 is 0.0424 µM and the TGI was above 100 µM.
The compound `N=Nc1c(OC(=O)Nc2cccc(Cl)c2)[nH]c2ccccc12` came in with a TGI of 21.4 µM.

Another test relates to HT29 colon. The test can be described thus: NCI-60 cell line screen, 48 h.
Consider `CCCCCCCC(=O)SCC/C=C/[C@@H]1CC(=O)NCc2cc(ccn2)C2=N[C@@](C)(CS2)C(=O)N[C@@H](C(C)C)C(=O)O1`, for which the GI50 was 0.0112 µM and the TGI was above 33.3 µM.
`CSc1nc(NC2OCC(OC(C)=O)C(OC(C)=O)C2OC(C)=O)c(N=CC=Nc2c(NC3OCC(OC(C)=O)C(OC(C)=O)C3OC(C)=O)nc(SC)[nH]c2=O)c(=O)[nH]1` (stereo not given) gave a TGI above 100 µM.
On the same count and under the same terms, the value for `COc1cc(OC)cc(-c2cc(=O)c3c(OC)c(OC)c(OC)c(OC)c3o2)c1` was above 100 µM.
Consider `O=C1OC(O)[C@@H]2[C@H]1[C@H]1CC[C@@H]2O1` (stereo not given in full), for which the GI50 was 4.99 µM and the TGI was 32.2 µM.
For the compound `COC(=O)C1=C(C)NC(C)=C(C(=O)OCCCN2CCC(c3ccccc3)(c3ccccc3)CC2)C1c1cccc([N+](=O)[O-])c1` (stereo not given), the TGI turned out to be 2.71 µM.
`COc1ccc([C@H]2[C@@H](F)C(=O)N2c2cc(OC)c(OC)c(OC)c2)cc1F`: the GI50 was 0.134 µM and the TGI was above 100 µM.
Regarding `N=Nc1c(OC(=O)Nc2cccc(Cl)c2)[nH]c2ccccc12`, the TGI turned out to be 17.7 µM.

Another test relates to A549 NSCLC. The test can be described thus: NCI-60 cell line screen, 48 h.
On to `CCCCCCCC(=O)SCC/C=C/[C@@H]1CC(=O)NCc2cc(ccn2)C2=N[C@@](C)(CS2)C(=O)N[C@@H](C(C)C)C(=O)O1`, for which the GI50 was 0.0116 µM.
In turn, `CSc1nc(NC2OCC(OC(C)=O)C(OC(C)=O)C2OC(C)=O)c(N=CC=Nc2c(NC3OCC(OC(C)=O)C(OC(C)=O)C3OC(C)=O)nc(SC)[nH]c2=O)c(=O)[nH]1` (stereo not given) showed a TGI above 100 µM.
In turn, `COc1cc(OC)cc(-c2cc(=O)c3c(OC)c(OC)c(OC)c(OC)c3o2)c1` came in with a TGI above 100 µM.
In the case of `O=C1OC(O)[C@@H]2[C@H]1[C@H]1CC[C@@H]2O1` (stereo not given in full), the GI50 is 60.8 µM and the TGI was above 100 µM.
`COC(=O)C1=C(C)NC(C)=C(C(=O)OCCCN2CCC(c3ccccc3)(c3ccccc3)CC2)C1c1cccc([N+](=O)[O-])c1` (stereo not given) came in with a TGI of 3.41 µM.
In the case of `COc1ccc([C@H]2[C@@H](F)C(=O)N2c2cc(OC)c(OC)c(OC)c2)cc1F`, the GI50 is 0.394 µM and the TGI is above 100 µM.
In turn, `N=Nc1c(OC(=O)Nc2cccc(Cl)c2)[nH]c2ccccc12` had a TGI of 18.7 µM.

Another test has as its system U251 CNS. Kind of test: NCI-60 cell line screen, 48 h.
As to `CCCCCCCC(=O)SCC/C=C/[C@@H]1CC(=O)NCc2cc(ccn2)C2=N[C@@](C)(CS2)C(=O)N[C@@H](C(C)C)C(=O)O1`, the GI50 was 0.0291 µM and the TGI came out at 0.309 µM.
`CSc1nc(NC2OCC(OC(C)=O)C(OC(C)=O)C2OC(C)=O)c(N=CC=Nc2c(NC3OCC(OC(C)=O)C(OC(C)=O)C3OC(C)=O)nc(SC)[nH]c2=O)c(=O)[nH]1` (stereo not given): the TGI is above 100 µM.
In turn, `COc1cc(OC)cc(-c2cc(=O)c3c(OC)c(OC)c(OC)c(OC)c3o2)c1` displayed a TGI above 100 µM.
With `O=C1OC(O)[C@@H]2[C@H]1[C@H]1CC[C@@H]2O1` (stereo not given in full), the GI50 is above 100 µM and the TGI was above 100 µM.
For the compound `COC(=O)C1=C(C)NC(C)=C(C(=O)OCCCN2CCC(c3ccccc3)(c3ccccc3)CC2)C1c1cccc([N+](=O)[O-])c1` (stereo not given), the TGI worked out at 3.21 µM.
For the compound `COc1ccc([C@H]2[C@@H](F)C(=O)N2c2cc(OC)c(OC)c(OC)c2)cc1F`, the GI50 is 0.236 µM and the TGI was above 100 µM.
In turn, `N=Nc1c(OC(=O)Nc2cccc(Cl)c2)[nH]c2ccccc12` gave a TGI of 18.9 µM.

Another test relates to LOX IMVI melanoma. The test can be described thus: NCI-60 cell line screen, 48 h.
As for `CCCCCCCC(=O)SCC/C=C/[C@@H]1CC(=O)NCc2cc(ccn2)C2=N[C@@](C)(CS2)C(=O)N[C@@H](C(C)C)C(=O)O1`, the GI50 was 0.0172 µM and the TGI is 0.0666 µM.
Turning to `CSc1nc(NC2OCC(OC(C)=O)C(OC(C)=O)C2OC(C)=O)c(N=CC=Nc2c(NC3OCC(OC(C)=O)C(OC(C)=O)C3OC(C)=O)nc(SC)[nH]c2=O)c(=O)[nH]1` (stereo not given), the TGI was above 100 µM.
`COc1cc(OC)cc(-c2cc(=O)c3c(OC)c(OC)c(OC)c(OC)c3o2)c1` returned a TGI above 100 µM.
Turning to `O=C1OC(O)[C@@H]2[C@H]1[C@H]1CC[C@@H]2O1` (stereo not given in full), the GI50 is above 100 µM and the TGI is above 100 µM.
Turning to `COC(=O)C1=C(C)NC(C)=C(C(=O)OCCCN2CCC(c3ccccc3)(c3ccccc3)CC2)C1c1cccc([N+](=O)[O-])c1` (stereo not given), the TGI was 3.2 µM.
As for `COc1ccc([C@H]2[C@@H](F)C(=O)N2c2cc(OC)c(OC)c(OC)c2)cc1F`, the GI50 is 0.0904 µM and the TGI was above 100 µM.
Turning to `N=Nc1c(OC(=O)Nc2cccc(Cl)c2)[nH]c2ccccc12`, the TGI was determined as 20.8 µM.
